Legend:
[1] = target: T1, soluble guanylate cyclase (sGC) (Homo sapiens (Human), UniProt Q02108+Q02153); experiment: sGC-HEK-cGMP assay run in the absence of SNP (HEK WC assay); assay type: cell-based; conditions: no SNP, increase in the sGC receptor activity; for HEK WC Assay (fold increase at 10 μM): compound at 10 μM; for HEK WC Assay (fold increase at 30 μM): compound at 30 μM
Outline: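 HEK293 cells with endogenous sGC, preincubated 15 min at 37° C with 0.5 mM IBMX, then exposed to test compound 10 min at 37° C without SNP. Cells lysed in 0.1 M HCl; cGMP quantified by LC/MS against a standard curve. EC50 from concentration-response curves.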

[2] = target: T1, soluble guanylate cyclase (sGC); experiment: sGC-HEK-cGMP assay run with SNP incubation (HEK WC assay); assay type: cell-based; conditions: for Emax at 10 µM: read-out: HEK WC Assay (% Emax at 10 uM/with 10 uM SNP); for Emax at 30 µM: read-out: HEK WC Assay (% Emax at 30 uM/with 10 uM SNP)
Outline: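 HEK293 cells with endogenous sGC were pretreated with 0.5 mM IBMX for 15 min at 37 °C, then exposed to test compound plus sodium nitroprusside for 10 min at 37 °C.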

[3] = target: T2, Human soluble guanylate cyclase enzyme (hsGC) (Homo sapiens (Human), UniProt Q02108+Q02153); experiment: Purified human sGC enzyme activity assay; assay type: biochemical; conditions: for sGC Enzyme (specific activity at 10 μM) / sGC Enzyme (fold increase at 10 μM without SNP): 10 μM compound; for sGC Enzyme (specific activity at 30 μM) / sGC Enzyme (fold increase at 30 μM without SNP): 30 μM compound
Outline: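 Purified human sGC (5 ng) incubated 30 min at 37° C with compound at 10 or 30 μM final in pH 8.0 Tris with 300 μM GTP, 2 mM MgCl2, 2 mM DTT and 1 mM IBMX, then stopped with cold methanol. cGMP quantified against a standard curve. Specific activity (nmol cGMP/mg sGC/min) expressed as fold-change over DMSO control.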

Thoracic aortic rings = Thoracic aortic rings assay (Example 19a; IBMX as 100% inhibition); conditions: compound at 10 μM, rat thoracic aortic rings contracted with 100 ng/mL phenylephrine; for inhibition at 10 µM: read-out: Percent Relaxation at 10 μM
Procedure: Thoracic aortic rings were dissected from anesthetized (isoflurane) male Sprague-Dawley rats weighing 275-299 g. Tissues were immediately transferred to ice-cold Krebs-Henseleit solution, which had been aerated with 95% O2 and 5% CO2 for 30 minutes. Following removal of connective tissue, aortic sections were cut into 4 rings (˜2 mm each) and suspended on 2 L-shaped hooks, with one hook fixed at the bottom of the tissue bath (Schuler Organ Bath, Harvard Apparatus) and the other connected to a force transducer (F30 Force Transducer, Harvard Apparatus). Baths contained Krebs Henseleit solution (10 mL) heated to 37° C. and aerated with 95% O2 and 5% CO2. Rings were brought to an initial tension of 0.3-0.5 g and gradually raised to a resting tension of 1.0 g over 60 minutes. Rings were rinsed with Krebs Henseleit solution (heated to 37° C. and aerated with 95% O2 and 5% CO2) at 15 minute intervals until a stable baseline was obtained. Rings were considered to be stable after a resting tension of 1.0 g was maintained (for approximately 10 minutes) without need for adjustment. Rings were then contracted with 100 ng/mL phenylephrine by adding 100 uL of a 10 μg/mL phenylephrine stock solution. Tissues achieving a stable contraction were then treated in a cumulative, dose dependent manner with test compounds prepared in dimethylsulfoxide (DMSO). In some cases, tissues were rinsed three times over a 5 minute period with Krebs-Heinseleit's solution (heated to 37° C. and aerated with 95% O2 and 5% CO2), allowed to stabilize at baseline, and then used for characterization of other test articles or DMSO effects. All data were collected using the HSE-ACAD software provided by Harvard Apparatus. […] EC50 values were calculated from concentration-response curves generated with GraphPad Prism Software.

[4] = target: T2, Human soluble guanylate cyclase enzyme (hsGC); experiment: Purified human sGC enzyme synergy assay in the presence of 1 μM sodium nitroprusside (SNP); assay type: biochemical; conditions: with 1 μM SNP; for sGC Enzyme (fold increase at 10 μM with SNP): 10 μM compound; for sGC Enzyme (fold increase at 30 μM with SNP): 30 μM compound
Outline: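 Purified human sGC (5 ng) incubated 30 min at 37 °C with compounds at 10 or 30 μM, 1 μM sodium nitroprusside, 300 μM GTP and 1 mM IBMX in Tris pH 8.0 with MgCl2/DTT. cGMP quantified against a standard curve, and specific activity expressed as fold-change over DMSO control.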

T1 sequence (Q02153 whole entry): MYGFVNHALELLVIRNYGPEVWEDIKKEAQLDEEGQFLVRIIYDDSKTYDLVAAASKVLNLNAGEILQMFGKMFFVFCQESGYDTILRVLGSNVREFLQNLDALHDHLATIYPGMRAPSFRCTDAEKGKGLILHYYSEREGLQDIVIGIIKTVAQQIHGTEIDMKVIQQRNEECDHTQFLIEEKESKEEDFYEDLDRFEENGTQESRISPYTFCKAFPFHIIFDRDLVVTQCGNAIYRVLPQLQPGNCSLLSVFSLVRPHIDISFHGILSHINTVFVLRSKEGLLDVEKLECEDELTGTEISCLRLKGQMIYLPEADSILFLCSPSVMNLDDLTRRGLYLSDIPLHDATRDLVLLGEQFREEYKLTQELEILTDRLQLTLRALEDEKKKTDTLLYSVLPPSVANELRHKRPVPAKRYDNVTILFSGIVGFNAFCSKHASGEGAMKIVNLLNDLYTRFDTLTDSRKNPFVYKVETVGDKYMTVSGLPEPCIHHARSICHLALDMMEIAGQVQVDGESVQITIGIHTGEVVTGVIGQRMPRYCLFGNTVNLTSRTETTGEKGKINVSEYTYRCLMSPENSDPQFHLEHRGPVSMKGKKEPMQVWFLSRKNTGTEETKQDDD
T1 sequence (Q02108 whole entry): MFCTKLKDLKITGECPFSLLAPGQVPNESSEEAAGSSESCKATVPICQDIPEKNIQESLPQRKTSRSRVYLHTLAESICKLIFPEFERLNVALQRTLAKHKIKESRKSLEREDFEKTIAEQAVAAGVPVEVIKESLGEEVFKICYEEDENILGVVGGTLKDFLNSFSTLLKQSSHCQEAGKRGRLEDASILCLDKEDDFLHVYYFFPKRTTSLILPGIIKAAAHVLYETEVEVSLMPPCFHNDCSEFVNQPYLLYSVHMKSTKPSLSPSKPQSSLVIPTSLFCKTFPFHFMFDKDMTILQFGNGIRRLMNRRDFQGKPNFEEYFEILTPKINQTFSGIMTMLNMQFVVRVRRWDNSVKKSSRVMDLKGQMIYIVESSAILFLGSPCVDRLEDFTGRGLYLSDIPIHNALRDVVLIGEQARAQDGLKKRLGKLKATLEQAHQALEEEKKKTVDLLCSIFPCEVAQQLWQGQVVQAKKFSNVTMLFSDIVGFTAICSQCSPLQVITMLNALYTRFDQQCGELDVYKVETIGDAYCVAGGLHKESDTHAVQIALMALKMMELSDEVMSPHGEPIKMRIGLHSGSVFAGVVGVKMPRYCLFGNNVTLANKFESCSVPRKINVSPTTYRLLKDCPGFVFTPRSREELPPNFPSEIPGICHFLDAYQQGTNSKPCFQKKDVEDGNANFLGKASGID
T2 sequence (Q02153 whole entry): as the sequence (Q02153 whole entry) above
T2 sequence (Q02108 whole entry): as the sequence (Q02108 whole entry) above

Row | Structure (SMILES) | HEK WC Assay (fold increase at 10 μM) [1] | HEK WC Assay (fold increase at 30 μM) [1] | Emax at 10 µM [2] [%] | Emax at 30 µM [2] [%] | sGC Enzyme (specific activity at 10 μM) [3] | sGC Enzyme (fold increase at 10 μM without SNP) [3] | sGC Enzyme (specific activity at 30 μM) [3] | sGC Enzyme (fold increase at 30 μM without SNP) [3] | inhibition at 10 µM (Thoracic aortic rings) [%] | sGC Enzyme (fold increase at 10 μM with SNP) [4] | sGC Enzyme (fold increase at 30 μM with SNP) [4] | Percent Relaxation at 10 μM (Thoracic aortic rings) [%]
1 | Fc1ccccc1Cn1nc(-c2ccccn2)cc1-c1ccccn1 [Compound I-1] | A (A = no increase to <1 fold increase) | C (C = 2 to <5 fold increase) | 0 to 10 | 10 to 20 | B (B = 50 to <100) | B (B = 2 to <5 fold increase) | C (C = 100 to <200) | C (C = 5 to <10 fold increase) | 53.7 |  |  | 
2 | Fc1ccccc1Cn1nc(-c2ncccn2)cc1-c1ccccc1 [Compound I-2] | A (A = no increase to <1 fold increase) | B (B = 1 to <2 fold increase) | 10 to 20 | 20 to 40 | B (B = 50 to <100) | B (B = 2 to <5 fold increase) | A (A = 0 to <50) | B (B = 2 to <5 fold increase) | 101 |  |  | 
3 | Fc1ccccc1Cn1nc(-c2ccccn2)cc1-c1ccccc1F [Compound I-7] |  |  | 0 to 10 | 0 to 10 | D (D = 200 to <500) | B (B = 2 to <5 fold increase) | D (D = 200 to <500) | B (B = 2 to <5 fold increase) | 60.4 | B (B = 2 to <5 fold increase) | C (C = 5 to <10 fold increase) | 
4 | Fc1ccccc1Cn1nc(-c2ccccn2)cc1-c1ccsc1 [Compound I-26] |  |  | 20 to 40 | 40 to 60 | D (D = 200 to <500) | B (B = 2 to <5 fold increase) | D (D = 200 to <500) | C (C = 5 to <10 fold increase) | 85.3 | C (C = 5 to <10 fold increase) | D (D = equal or >10 fold increase) | 
5 | Fc1ccccc1Cn1nc(-c2ccccn2)cc1-c1nccs1 [Compound I-27] |  |  | 20 to 40 | 40 to 60 | C (C = 100 to <200) | B (B = 2 to <5 fold increase) | D (D = 200 to <500) | B (B = 2 to <5 fold increase) | 77.2 |  |  | 
6 | Nc1ccnc(-c2cc(-c3ccccn3)n(Cc3ccccc3F)n2)n1 [Compound I-31] |  |  | 0 to 10 | 10 to 20 | C (C = 100 to <200) | A (A = no increase to <2 fold increase) | C (C = 100 to <200) | B (B = 2 to <5 fold increase) | 93.2 | B (B = 2 to <5 fold increase) | C (C = 5 to <10 fold increase) | 
7 | Fc1ccccc1Cn1nc(-c2ccccn2)cc1C1CCC1 [Compound I-42] |  |  | 0 to 10 | 10 to 20 | D (D = 200 to <500) | B (B = 2 to <5 fold increase) | E (E = 500 to <1000) | C (C = 5 to <10 fold increase) | 72.1 | B (B = 2 to <5 fold increase) | C (C = 5 to <10 fold increase) | 
8 | Fc1ccccc1Cn1nc(-c2ccccn2)cc1-c1nnco1 [Compound I-45] |  |  | 20 to 40 | 20 to 40 | C (C = 100 to <200) | A (A = no increase to <2 fold increase) | C (C = 100 to <200) | B (B = 2 to <5 fold increase) | 94.9 | C (C = 5 to <10 fold increase) | D (D = equal or >10 fold increase) | 
9 | Nc1ccnc(-c2cc(-c3ccsc3)n(Cc3ccccc3F)n2)n1 [Compound I-49] |  |  | 20 to 40 | 40 to 60 | D (D = 200 to <500) | C (C = 5 to <10 fold increase) | E (E = 500 to <1000) | D (D = equal or >10 fold increase) | 106 |  |  | 
10 | Fc1ccccc1Cn1nc(-c2ccccn2)cc1-c1ccco1 [Compound I-61] |  |  | 20 to 40 | 20 to 40 | C (C = 100 to <200) | B (B = 2 to <5 fold increase) | D (D = 200 to <500) | C (C = 5 to <10 fold increase) | 103 | D (D = equal or >10 fold increase) | D (D = equal or >10 fold increase) | 
11 | Fc1ccccc1Cn1nc(-c2ncccn2)cc1-c1cccs1 [Compound I-66] |  |  | 20 to 40 | 20 to 40 | B (B = 50 to <100) | B (B = 2 to <5 fold increase) | C (C = 100 to <200) | C (C = 5 to <10 fold increase) | 103 | C (C = 5 to <10 fold increase) | D (D = equal or >10 fold increase) | 
12 | Nc1nc(-c2nn(Cc3ccccc3F)c3ncccc23)ncc1C1CC1 [Reference Compound, BAY 41-2272, reference compound] |  |  |  |  |  |  |  |  |  |  |  | 100
